Our source for the IC50 values is US9884063B2, “Amido-substituted azole compounds” (Bayer Pharma Aktiengesellschaft, priority 2014, dated 2018).

The target in the assay is T1, TNKS1 (Homo sapiens, UniProt O95271).
T1 sequence (O95271 1-1327): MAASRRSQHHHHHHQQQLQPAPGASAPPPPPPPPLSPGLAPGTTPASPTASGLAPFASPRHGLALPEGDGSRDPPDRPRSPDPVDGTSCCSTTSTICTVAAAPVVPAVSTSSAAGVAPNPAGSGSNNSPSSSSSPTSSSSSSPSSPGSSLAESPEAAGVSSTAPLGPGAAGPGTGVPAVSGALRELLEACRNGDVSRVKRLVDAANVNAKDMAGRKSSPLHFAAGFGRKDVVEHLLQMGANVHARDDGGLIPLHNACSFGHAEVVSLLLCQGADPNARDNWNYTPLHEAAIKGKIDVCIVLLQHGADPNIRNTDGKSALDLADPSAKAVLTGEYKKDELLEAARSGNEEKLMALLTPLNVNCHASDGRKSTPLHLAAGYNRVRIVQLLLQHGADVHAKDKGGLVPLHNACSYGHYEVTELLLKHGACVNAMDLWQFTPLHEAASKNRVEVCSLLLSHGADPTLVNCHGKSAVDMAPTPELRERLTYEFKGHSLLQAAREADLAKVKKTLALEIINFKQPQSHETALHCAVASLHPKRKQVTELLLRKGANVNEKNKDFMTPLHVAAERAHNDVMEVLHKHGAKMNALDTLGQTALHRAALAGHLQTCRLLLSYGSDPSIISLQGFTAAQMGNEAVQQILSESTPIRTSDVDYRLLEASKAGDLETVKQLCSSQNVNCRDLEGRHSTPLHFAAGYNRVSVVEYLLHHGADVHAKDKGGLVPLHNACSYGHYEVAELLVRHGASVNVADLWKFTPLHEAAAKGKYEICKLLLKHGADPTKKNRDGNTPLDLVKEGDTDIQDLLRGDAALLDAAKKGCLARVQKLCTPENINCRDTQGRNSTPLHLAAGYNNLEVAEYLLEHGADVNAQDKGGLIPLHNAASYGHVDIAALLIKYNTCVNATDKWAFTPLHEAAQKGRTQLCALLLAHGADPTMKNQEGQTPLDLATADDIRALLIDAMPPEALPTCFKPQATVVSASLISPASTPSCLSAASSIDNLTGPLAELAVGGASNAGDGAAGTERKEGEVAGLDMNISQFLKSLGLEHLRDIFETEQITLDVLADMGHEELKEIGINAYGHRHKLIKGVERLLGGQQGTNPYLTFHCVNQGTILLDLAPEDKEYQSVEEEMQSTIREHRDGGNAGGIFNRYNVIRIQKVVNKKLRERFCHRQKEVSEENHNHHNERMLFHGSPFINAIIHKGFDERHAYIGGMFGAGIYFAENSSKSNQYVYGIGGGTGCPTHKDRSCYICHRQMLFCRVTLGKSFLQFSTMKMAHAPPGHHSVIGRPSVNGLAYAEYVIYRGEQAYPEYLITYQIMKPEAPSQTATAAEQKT
Put plainly: Modified TNKS1 Assay 2 (auto-parsylation, [3H]-NAD+ SPA). The conditions noted are these: 6 nM TNKS1, 96 well. It counts as biochemical.
Take `COC(=O)c1nc[nH]c1C(=O)Nc1ccc(NC(=O)c2ccccc2Cl)c(C)c1` [Example 86, methyl-5-({4-[(2-chlorobenzoyl)amino]-3-methylphenyl}carbamoyl)-1H-imidazole-4-carboxylate]: the IC50 (commonly the concentration that gives 50% inhibition) came to 2600 nM. This lies in the single-digit micromolar range.
Consider `Cc1cc(NC(=O)c2[nH]cnc2C(=O)NCCN2CCCCC2)ccc1NC(=O)c1ccccc1Cl` [Example 89, N^5-{4-[(2-chlorobenzoyl)amino]-3-methylphenyl}-N^4-[2-(piperidin-1-yl)ethyl]-1H-imidazole-4,5-dicarboxamide], for which the half-maximal inhibitory concentration (IC50) came out at 30 nM.
Compound `COC(=O)c1nc[nH]c1C(=O)Nc1ccc(NC(=O)c2ccc(F)cc2Cl)c(OC)c1` [Example 94, methyl 5-({4-[(2-chloro-4-fluorobenzoyl)amino]-3-methoxyphenyl}carbamoyl)-1H-imidazole-4-carboxylate] had an IC50 of 440 nM.
Regarding `CNC(=O)c1nc[nH]c1C(=O)Nc1ccc(NC(=O)c2ccc(F)cc2Cl)c(OC)c1` [Example 95, N^5-{4-[(2-chloro-4-fluorobenzoyl)amino]-3-methoxyphenyl}-N^4-methyl-1H-imidazole-4,5-dicarboxamide], the IC50 is 80 nM.
For `COc1cc(NC(=O)c2[nH]cnc2C(=O)NCCN(C)C)ccc1NC(=O)c1ccc(F)cc1Cl` [Example 96, N^5-{4-[(2-chloro-4-fluorobenzoyl)amino]-3-methoxyphenyl}-N^4-[2-(dimethylamino)ethyl]-1H-imidazole-4,5-dicarboxamide], the IC50 came out at 30 nM.
Turning to `COc1cc(NC(=O)c2[nH]cnc2C(=O)NCCN2CCCCC2)ccc1NC(=O)c1ccc(F)cc1Cl` [Example 97, N^5-{4-[(2-chloro-4-fluorobenzoyl)amino]-3-methoxyphenyl}-N^4-[2-(piperidin-1-yl)ethyl]-1H-imidazole-4,5-dicarboxamide], the half-maximal inhibitory concentration (IC50) came out at 60 nM.
With `COC(=O)c1nc[nH]c1C(=O)Nc1ccc(NC(=O)c2ccccc2Cl)c(OC)c1` [Example 98, methyl 5-({4-[(2-chlorobenzoyl)amino]-3-methoxyphenyl}carbamoyl)-1H-imidazole-4-carboxylate], the IC50 was 340 nM.
In turn, `COc1cc(NC(=O)c2[nH]cnc2C(=O)NCCN(C)C)ccc1NC(=O)c1ccccc1Cl` [Example 100, N^5-{4-[(2-chlorobenzoyl)amino]-3-methoxyphenyl}-N^4-[2-(dimethylamino)ethyl]-1H-imidazole-4,5-dicarboxamide] showed an IC50 of 50 nM. This IC50 is about 6.8-fold lower than that of the compound before.
Compound `COC(=O)c1nc[nH]c1C(=O)Nc1ccc(NC(=O)c2ccc(F)cc2)c(OC)c1` [Example 102, methyl 5-({4-[(4-fluorobenzoyl)amino]-3-methoxyphenyl}carbamoyl)-1H-imidazole-4-carboxylate] gave an IC50 greater than 10000 nM.
Compound `CNC(=O)c1[nH]c(C(C)C)nc1C(=O)Nc1ccc(NC(=O)c2ccc(F)cc2Cl)cc1` [Example 106, N^4-{4-[(2-chloro-4-fluorobenzoyl)amino]phenyl}-2-isopropyl-N^5-methyl-1H-imidazole-4,5-dicarboxamide] came in with an IC50 greater than 10000 nM.
Consider `CNC(=O)c1nc[nH]c1C(=O)Nc1ccc(NC(=O)c2ccccc2Cl)nc1` [Example 112, N^5-{6-[(2-chlorobenzoyl)amino]pyridin-3-yl}-N^4-methyl-1H-imidazole-4,5-dicarboxamide], for which the IC50 amounted to 250 nM.
Regarding `CN(C)CCNC(=O)c1nc[nH]c1C(=O)Nc1ccc(NC(=O)c2ccccc2Cl)nc1` [Example 113, N^5-{6-[(2-chlorobenzoyl)amino]pyridin-3-yl}-N^4-[2-(dimethylamino)ethyl]-1H-imidazole-4,5-dicarboxamide], the IC50 is 20 nM.
